In PubChem BioAssay (NCI):
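Five concentrations, 48 hours, 96-well plates. Definition used: TGI = concentration required for complete inhibition of growth.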

Key:
Test in all cases: NCI anticancer screen, dose series, 48 h
MDA-MB-435 = tested on: MDA-MB-435
UO-31 renal = tested on: UO-31 renal
A498 renal = tested on: A498 renal
K-562 leukemia = tested on: K-562 leukemia
OVCAR-3 ovarian = tested on: OVCAR-3 ovarian
DU-145 prostate = tested on: DU-145 prostate
SF-539 CNS = tested on: SF-539 CNS
OVCAR-8 ovarian = tested on: OVCAR-8 ovarian
HL-60(TB) leukemia = tested on: HL-60(TB) leukemia
SF-295 CNS = tested on: SF-295 CNS
SK-OV-3 ovarian = tested on: SK-OV-3 ovarian
MOLT-4 leukemia = tested on: MOLT-4 leukemia
SNB-75 CNS = tested on: SNB-75 CNS
HOP-92 NSCLC = tested on: HOP-92 NSCLC

CC(C)(C)NCc1cc(Nc2ccnc3cc(Cl)ccc23)cc(-c2ccc(Cl)cc2)c1O
TGI (MDA-MB-435): 3.64 µM | TGI (UO-31 renal): 18.1 µM | TGI (A498 renal): 11.5 µM | TGI (K-562 leukemia): 2.75 µM | TGI (OVCAR-3 ovarian): 8.75 µM | TGI (DU-145 prostate): 15 µM | TGI (SF-539 CNS): 3.28 µM | TGI (OVCAR-8 ovarian): 14.8 µM | TGI (HL-60(TB) leukemia): 4.01 µM | TGI (SF-295 CNS): 6.23 µM | TGI (SK-OV-3 ovarian): 16.9 µM | TGI (MOLT-4 leukemia): 4.55 µM | TGI (SNB-75 CNS): 5.13 µM | TGI (HOP-92 NSCLC): 7.08 µM

COCc1nc2c(OC)cc(-c3nc4nc(N5CCN(C)CC5)ccc4[nH]3)c(OC)c2[nH]1
TGI (MDA-MB-435): > 100 µM | TGI (UO-31 renal): > 100 µM | TGI (A498 renal): > 100 µM | TGI (K-562 leukemia): > 100 µM | TGI (OVCAR-3 ovarian): 83 µM | TGI (DU-145 prostate): > 100 µM | TGI (OVCAR-8 ovarian): > 100 µM | TGI (HL-60(TB) leukemia): > 100 µM | TGI (SF-295 CNS): > 100 µM | TGI (SK-OV-3 ovarian): > 100 µM | TGI (MOLT-4 leukemia): > 100 µM | TGI (SNB-75 CNS): > 100 µM | TGI (HOP-92 NSCLC): > 100 µM

Nc1ccccc1CCCC(=O)O
TGI (MDA-MB-435): > 100 µM | TGI (UO-31 renal): > 100 µM | TGI (A498 renal): > 100 µM | TGI (K-562 leukemia): > 100 µM | TGI (OVCAR-3 ovarian): > 100 µM | TGI (DU-145 prostate): > 100 µM | TGI (SF-539 CNS): > 100 µM | TGI (OVCAR-8 ovarian): > 100 µM | TGI (HL-60(TB) leukemia): > 100 µM | TGI (SF-295 CNS): > 100 µM | TGI (SK-OV-3 ovarian): > 100 µM | TGI (MOLT-4 leukemia): > 100 µM | TGI (SNB-75 CNS): > 100 µM | TGI (HOP-92 NSCLC): > 100 µM

Cc1cc(NC(=S)Nc2ccccc2)c(NC(=S)Nc2ccccc2)cc1C
TGI (UO-31 renal): > 74.6 µM | TGI (A498 renal): 98.3 µM | TGI (K-562 leukemia): 41.2 µM | TGI (OVCAR-3 ovarian): 50.9 µM | TGI (SF-539 CNS): 50.6 µM | TGI (OVCAR-8 ovarian): > 100 µM | TGI (HL-60(TB) leukemia): 5.23 µM | TGI (SF-295 CNS): 62.2 µM | TGI (SK-OV-3 ovarian): > 75 µM | TGI (MOLT-4 leukemia): > 60.1 µM | TGI (SNB-75 CNS): > 94.7 µM | TGI (HOP-92 NSCLC): > 100 µM

O=C(O)CCCCCCC[C@@H]1S[C@H]1CCCCCCO
TGI (UO-31 renal): > 100 µM | TGI (A498 renal): > 100 µM | TGI (K-562 leukemia): > 100 µM | TGI (OVCAR-3 ovarian): > 100 µM | TGI (SF-539 CNS): > 100 µM | TGI (OVCAR-8 ovarian): > 100 µM | TGI (HL-60(TB) leukemia): > 100 µM | TGI (SF-295 CNS): > 100 µM | TGI (SK-OV-3 ovarian): > 100 µM | TGI (MOLT-4 leukemia): > 100 µM | TGI (SNB-75 CNS): > 100 µM | TGI (HOP-92 NSCLC): > 94.4 µM

COc1cc2c(cc1OCCCOc1cc(-c3ccc(F)cc3)nc(C)n1)N=C[C@@H]1CCCN1C2=O
TGI (MDA-MB-435): 28.5 µM | TGI (UO-31 renal): 38.7 µM | TGI (A498 renal): 26.4 µM | TGI (OVCAR-3 ovarian): 29.4 µM | TGI (DU-145 prostate): 36.1 µM | TGI (SF-539 CNS): 48.7 µM | TGI (OVCAR-8 ovarian): > 100 µM | TGI (HL-60(TB) leukemia): 54.1 µM | TGI (SF-295 CNS): 31 µM | TGI (SK-OV-3 ovarian): 62.7 µM | TGI (MOLT-4 leukemia): 61.1 µM | TGI (SNB-75 CNS): 49.1 µM | TGI (HOP-92 NSCLC): > 100 µM

CCSc1nc(N)c2c(-c3ccc(OC)c(OC)c3)c3c(nc2n1)CCCC3
TGI (MDA-MB-435): > 100 µM | TGI (UO-31 renal): > 100 µM | TGI (K-562 leukemia): > 100 µM | TGI (OVCAR-3 ovarian): > 100 µM | TGI (DU-145 prostate): > 100 µM | TGI (SF-539 CNS): > 100 µM | TGI (OVCAR-8 ovarian): > 100 µM | TGI (HL-60(TB) leukemia): > 100 µM | TGI (SF-295 CNS): > 100 µM | TGI (SK-OV-3 ovarian): > 100 µM | TGI (MOLT-4 leukemia): > 100 µM | TGI (SNB-75 CNS): > 100 µM

CN(C)c1ccc(/C=C2/SC(=S)NC2=O)cc1
TGI (MDA-MB-435): > 100 µM | TGI (UO-31 renal): > 100 µM | TGI (A498 renal): > 100 µM | TGI (K-562 leukemia): > 100 µM | TGI (OVCAR-3 ovarian): > 100 µM | TGI (DU-145 prostate): > 100 µM | TGI (SF-539 CNS): > 100 µM | TGI (OVCAR-8 ovarian): > 100 µM | TGI (HL-60(TB) leukemia): > 100 µM | TGI (SF-295 CNS): > 100 µM | TGI (SK-OV-3 ovarian): > 100 µM | TGI (MOLT-4 leukemia): > 100 µM | TGI (SNB-75 CNS): > 100 µM | TGI (HOP-92 NSCLC): > 100 µM

Cn1c2ccccc2c2c(-c3ccccc3)[n+]3ccccc3nc21
TGI (MDA-MB-435): 36.6 µM | TGI (UO-31 renal): > 100 µM | TGI (A498 renal): > 100 µM | TGI (K-562 leukemia): > 100 µM | TGI (OVCAR-3 ovarian): 57.7 µM | TGI (DU-145 prostate): > 100 µM | TGI (SF-539 CNS): > 100 µM | TGI (OVCAR-8 ovarian): > 100 µM | TGI (HL-60(TB) leukemia): 66.6 µM | TGI (SF-295 CNS): > 100 µM | TGI (SK-OV-3 ovarian): > 100 µM | TGI (MOLT-4 leukemia): > 100 µM | TGI (SNB-75 CNS): > 100 µM | TGI (HOP-92 NSCLC): 39.7 µM
